“Also recorded” adds a separate entry of the source. Where two headings read alike, the source gives them in different places.
Tests used:
[1] = rat, in vivo
Method: Methods: Rats were given an i.p. injection of XA 50 mg/kg and then sacrificed 30 minutes later by microwave irradiation. Brains were dissected and XA was assayed in 20 different regions of the brain.

[2] = target: xanthurenic acid binding site(s); assay: [3H]-XA binding to synaptic membranes in the presence of copper ions; design: species or system rat; conditions: pH 6.5
[3] = tested on: xanthurenic acid receptor(s); type: cell-based
[4] = tested on: rat; assay: Porsolt test (swimming test); conditions: in vivo
Method: The following doses were used: 50, 100, 150 and 200 mg/kg i.p.
This test has been validated with imipramine 30 mg/kg. The test described by Porsolt et al., Eur. J. Pharmacol. 1978, 47: 379–391, was used.

[5] = tested on: rat; assay: Dopaminergic stereotypies after intracerebral injection; conditions: in vivo
Method: The product was injected by the intracerebroventricular route (i.c.v.) on the one hand, and in defined brain structures on the other hand: ventral tegmental area (A10), substantia nigra (A9) or nucleus accumbens. […] After disappearance of the stereotypies (30±15 minutes), reinjection of XA induced the same effects.
The following stereotypies are observed: licking, chewing, hyperactivity, exploring, standing, grooming, burrowing, stretching and sniffing.
These behaviors developed two minutes after the intracerebral injection and lasted for 30 to 40 minutes. One hour after such behaviors disappeared, they could be re-induced by another injection.

[6] = tested on: rat; assay: Rotations in rats with unilateral 6-OHDA lesions; type: in vivo; conditions: rat, in vivo
[7] = tested on: glutamate release in the frontal cortex; assay: Frontal extracellular glutamate release after retrodialysis of XA; conditions: rat, in vivo
Method: Amino acids contained in 15 μl of dialysate were separated according to their hydrophobicity by reverse phase high performance liquid chromatography (HPLC). […] The mobile phase was composed of a binary gradient between solution A: 0.05 M NaH2PO4 (Roth) 80% (pH 4.8 adjusted with 10 N NaOH), methanol 20% (Chromanorm, Prolabo); and solution B: 0.05 M NaH2PO4 20% (pH 4.8 ajusted with 10 N NaOH), methanol 80% and THF 5%. Glutamate and GABA were measured by fluorimetric detection at an excitation wavelength of 345 nm and an emission wavelength of 455 nm after derivatization. Chromatogram acquisition and quantitative data analysis were done with Millenium software (Waters).
The samples were derivatized by mixing 15 μl of dialysate with 15 μl of the following derivatization solution: 7.5 mg o-phthaldialdehyde (Sigma) in 4.5 ml of 0.1 M sodium tetraborate pH 9.3, 500 μl of methanol and 10 μl of 3-mercapto-propionic acid (Sigma). The elution rate was 0.8 ml/min at 35° C. in a series of steps: 90% A and 10% B at 0 min; 40% A and 60% B to 15 min (linear gradient); 40% A and 60% B to 19 min (isocratic gradient); 0% A and 100% B to 19.1 min; 0% A and 100% B to 24 min (isocratic gradient); 90% A and 10% B to 24.1 min (isocratic gradient) and 90% A and 10% B to 30 min. […]

[8] = tested on: rat; assay: Reversal of XA-induced sedation in the open field test; conditions: in vivo
Method: Study of reversal of sedation induced by XA 100 mg/kg i.p

[9] = tested on: rat; conditions: in vivo
[10] = tested on: mice; conditions: mouse, in vivo; cited from earlier work

In the case of `O=C(O)c1cc(O)c2cccc(O)c2n1` [XA, xanthurenic acid], the “Brain regions where XA accumulated” value [1] is reported as “accumulated primarily in the frontal and prefrontal cortex (PFC), temporal and parietal cortex, amygdala, dopaminergic nuclei and in the striatum”, the IC50 ([2]; read-out: IC50, two site binding model, first site) is reported as 1 µM and the IC50 ([2]; read-out: IC50, two site binding model, second site) is reported as 114 µM. For the same molecule, the Kd ([2]; read-out: Kd (saturation experiment)) was 7.56 µM, the “factor of increase of current amplitude at the peak of the transient current” value [3] was 5 factor and the “factor of increase of current amplitude, on average” value [3] was 5.0±1.7 factor. The “inversion potential, onset of the response” value [3] was −16.5 mV, the “inversion potential, second phase of the response” value [3] was −4.2 mV and the mean outflux current [3] was “considerably increased”. The “cumulative duration of immobility” value [4] was “statistically significant decrease in the cumulative duration of immobility; also recorded: duration of immobility decreases with increasing doses”, the stereotypies [5] was “dose-related stereotypies were observed; also recorded: induced dose-dependent stereotypies” and the “time to disappearance of the stereotypies” value [5] was 30 ± 15 min. For the same molecule, the “controlateral rotations induced by apomorphine” value [6] was “did not antagonize; also recorded: did not modify the number of controlateral rotations”, the “ipsilateral rotations induced by amphetamine” value [6] was “had no effect” and the “decrease in GLU release” value [7] was 37%. It also gave a Grooming [8] of 4 ± 2, an Inner squares [8] of 19 ± 6 and an Outer squares [8] of 91 ± 17. For the same molecule, the Standing [8] was 37 ± 14, the Total squares [8] was 110 ± 25 and the “amplitude of the EEG waves” value [9] was “reduction in the amplitude of the EEG waves”. The “decrease in body temperature” value [9] was −0.5 to −2 °C and the head twitch behavior [10] was “does not induce head twitch behavior”.
